Converted amounts (≈) assume the structure as drawn. Read-outs that look alike come from different tables or passages of the source.
Key:
[1] = Intestinal S9 Assay (human GI S9); format: in vitro ADME; conditions: 1.0 mg/mL S9 protein; for half-life at 2 μM: human, TRIS pH 7.4, read-out: Human GI S9 T½
Description: (§1) Reagents. Stock solutions of test compounds in dimethyl sulfoxide (DMSO) having a final concentration of 10 mM were prepared and used in all experiments. Sekisui XenoTech (Kansas City, KS) provided pooled intestinal S9 fractions. All other chemicals were purchased from Sigma-Aldrich (St. Louis, MO) or VWR (West Chester, PA). Internal Standard/Quench (IS/Q) used to stop reactions was 100 nM labetalol in (by volume) formic acid (1%) and acetonitrile (99%).
(§2) Intestinal S9 Assay: For each test compound, an aliquot of the test compound was added to S9 stock diluted with TRIS buffer (100 mM TRIS, 1 mM ZnCl2, 1 mM MgCl2), pH 7.4, to obtain an incubation protein concentration of 1.0 mg/mL. The incubation was initiated by the addition of the substrate to the S9 reaction mixture to a final concentration of 2 μM. At 0, 10, 20, 30, 60 and 120 min, 25 μL aliquots of the reaction mixture were transferred to plates containing 225 μl of IS/Q solution. After quenching, the plates were centrifuged at 3000×g for 30 minutes. 150 μL aliquots of each supernatant were transferred to new plates and 150 μL water was added. Aliquots (10 μL) of the prepared samples were analyzed on a Thermo Q-Exactive mass spectrometer as described below.
(§3) Liquid Chromatography-Mass Spectrometry: Quantification of test compounds and control substrate was performed by analyte/internal standard peak area ratio (PAR) values measured on a Thermo Q-Exactive mass spectrometer coupled to a Dionex UltiMate 3000 HPLC with a Leap Technologies HTC PAL autosampler. The column used for analysis was a Thermo Scientific Hypersil GOLD (1.9 μm particle size, 50×2.1 mm). Mobile phase A consisted of 0.1% (v/v) formic acid in water. Mobile phase B consisted of 0.1% (v/v) formic acid in acetonitrile. Elution of analytes was achieved by a series of linear gradients varying the proportions of A and B. The mass spectrometer was calibrated on a weekly basis and mass tolerance of 5 ppm was used.
(§4) Data Analysis. Metabolic stabilities were determined by measuring the rates of disappearance of test compound and positive control substrate. Data (% of substrate remaining) were plotted on a semi-log scale and fitted using an exponential decline model:
(§5) where • Ct% of substrate remaining at time=t • C0% of substrate remaining at time=0 • t time • T½ half-life • The Half-life (T½) is determined by the following equation:
(§6) [formula] • Assuming a first-order reaction, the slope (k) is extrapolated from the aforementioned plotted data.

Solubility in FaSSIF = conditions: 23 °C, pH 6.5, fassif, thermodynamic from solid
Method in brief: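 Concentration measured by HPLC-UV after solid compound was dosed at 5 mg/mL into pH 6.5 fasted-state simulated intestinal fluid containing taurocholate and lecithin (4:1 molar) and vortexed.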

[2] = target: bovine intestinal alkaline phosphatase (Bos taurus (Bovine), UniProt P19111); assay: BiALP: conversion by bovine intestinal alkaline phosphatase; format: in vitro ADME; conditions: 2 μM substrate, 100 ng/mL iALP, Tris pH 7.8, 37° C., 60 minutes; for [Intermediate A] or [Amprenavir]: parent formed
Method in brief: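 LC-MS (positive mode) quantified analyte/internal-standard peak area ratios, referenced to 2 μM parent product. This followed a 60 min, 37° C reaction of 2 μM substrate in Tris buffer pH 7.8 (1 mM MgCl2, 1 mM ZnCl2) containing 100 ng/mL iALP or buffer alone, run in triplicate.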

[3] = Intestinal S9 Assay (dog GI S9); format: in vitro ADME; conditions: 1.0 mg/mL S9 protein; for half-life at 2 μM: dog, TRIS pH 7.4, read-out: Dog GI S9 T½
Description: as §1, §2, §3, §4, §5, §6

HIV-1 IIIB strain = assay: MT-4 HIV Wild Type Virus Infection Assay (IIIB Virus); format: cell-based; conditions: Human immunodeficiency virus 1, IIIB, MT4, 120 h, MT-4 cells acutely infected with HIV-1 IIIB, 5 day incubation, Cell-titer glo
Method in brief: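 MT-4 cells at 2×10^6 cells/ml in RPMI/10% FBS were acutely infected with HIV-1 IIIB for 1 h at 37° C, diluted 25× and added to serially diluted compounds. After 5 days at 37° C, viability read by CellTiter-Glo luminescence; EC50 from dose-response curves.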

PBS Stability Assay = format: physicochemical; conditions: buffer, pH 7.4, 2 μM, phosphate buffered saline pH 7.4; read-out: PBS T½
Method in brief: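 Half-life derives from first-order exponential decline of % compound remaining, quantified by LC-MS analyte/internal-standard peak-area ratio. Compound (2 μM final) sat in pH 7.4 phosphate-buffered saline, with aliquots quenched into acidified acetonitrile containing labetalol from 0 to 120 min.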

Sequence of bovine intestinal alkaline phosphatase (P19111 20-506): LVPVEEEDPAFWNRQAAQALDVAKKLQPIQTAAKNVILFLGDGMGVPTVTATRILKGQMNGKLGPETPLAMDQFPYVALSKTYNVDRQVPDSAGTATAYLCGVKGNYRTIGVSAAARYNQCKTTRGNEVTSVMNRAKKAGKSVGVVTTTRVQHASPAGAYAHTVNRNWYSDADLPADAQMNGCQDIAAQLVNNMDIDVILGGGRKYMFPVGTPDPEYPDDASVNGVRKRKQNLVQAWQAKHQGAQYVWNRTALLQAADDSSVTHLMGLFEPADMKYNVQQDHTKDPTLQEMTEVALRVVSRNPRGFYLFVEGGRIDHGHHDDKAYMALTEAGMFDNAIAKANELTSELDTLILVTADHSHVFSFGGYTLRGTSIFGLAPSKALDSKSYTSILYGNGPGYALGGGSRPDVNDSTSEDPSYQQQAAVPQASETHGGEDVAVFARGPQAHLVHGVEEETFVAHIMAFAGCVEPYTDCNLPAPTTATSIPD

SMILES | solubility at 2 h (Solubility in FaSSIF) [µg/mL] | [Compound] [2] [nM] | EC50 (HIV-1 IIIB strain) [nM] | half-life at 2 μM (PBS Stability Assay) [h] | also measured
COC(=O)N[C@H](C(=O)N[C@@H](Cc1ccc(C#Cc2cnc(N3CC4CCC(C3)N4C3COC3)nc2)cc1)[C@H](CN(Cc1c(F)cc(-c2ccn(C(F)F)n2)cc1F)NC(=O)[C@@H](NC(=O)OC)C(C)(C)C(F)(F)F)OC(=O)CC(C)(C)c1c(CC(=O)N2[C@@H](C)CC[C@H]2C(=O)O)cc(C)cc1OP(=O)(O)O)C(C)(C)C(F)(F)F [Example 54] | 3080 (≈ 1930 µM) | 1661.6 | 94 |  | half-life at 2 μM [1]: 12.9 h; half-life at 2 μM [3]: 9.44 h
COC(=O)N[C@H](C(=O)N[C@@H](Cc1ccc(C#Cc2cnc(N3CC4CCC(C3)N4C3COC3)nc2)cc1)[C@H](CN(Cc1c(F)cc(-c2ccn(C(F)F)n2)cc1F)NC(=O)[C@@H](NC(=O)OC)C(C)(C)C(F)(F)F)OC(=O)CC(C)(C)c1c(CC(=O)NC2(C(=O)O)CCOCC2)cc(C)cc1OP(=O)(O)O)C(C)(C)C(F)(F)F [Example 31] | 3510 (≈ 2180 µM) | 2125.6 | 276 |  | half-life at 2 μM [1]: 8.24 h; half-life at 2 μM [3]: 3.71 h
COC(=O)N[C@H](C(=O)N[C@@H](Cc1ccc(C#Cc2cnc(N3CC4CCC(C3)N4C3COC3)nc2)cc1)[C@H](CN(Cc1c(F)cc(-c2ccn(C(F)F)n2)cc1F)NC(=O)[C@@H](NC(=O)OC)C(C)(C)C(F)(F)F)OC(=O)OCOC(=O)CC(C)(C)c1c(CC(=O)O)cc(C)cc1OP(=O)(O)O)C(C)(C)C(F)(F)F [Example 20] |  | 1351.2 |  | 6.5 | solubility (Solubility in FaSSIF; FaSSIF (pH 6.5) solubility, FaSSIF pH 6.5, dose 5 mg/mL, 2-hour incubation, ambient temperature): 220 µg/mL (≈ 141 µM); biALP Intermediate A or [Amprenavir] (% of total) [2]: 48.6 % of total; [Intermediate A] or [Amprenavir] [2]: 1276.2 nM; EC50 (HIV-1 IIIB strain; read-out: EC50): 0.7 nM
COC(=O)N[C@H](C(=O)N[C@@H](Cc1ccc(C#Cc2cnc(N3CC4CCC(C3)N4C3COC3)nc2)cc1)[C@H](CN(Cc1c(F)cc(-c2ccn(C(F)F)n2)cc1F)NC(=O)[C@@H](NC(=O)OC)C(C)(C)C(F)(F)F)OC(=O)CC(C)(C)c1c(CC(=O)N[C@H]2C[C@@H](C(=O)O)C2)cc(C)cc1OP(=O)(O)O)C(C)(C)C(F)(F)F [Example 102] | 2860 (≈ 1810 µM) | 1966.3 | 54.1 | 7.78 | 
COC(=O)N[C@H](C(=O)N[C@@H](Cc1ccc(C#Cc2cnc(N3CC4CCC(C3)N4C3COC3)nc2)cc1)[C@H](CN(Cc1c(F)cc(-c2ccn(C(F)F)n2)cc1F)NC(=O)[C@@H](NC(=O)OC)C(C)(C)C(F)(F)F)OC(=O)CC(C)(C)c1c(CC(=O)N(CCCC(=O)O)CCC(=O)O)cc(C)cc1OP(=O)(O)O)C(C)(C)C(F)(F)F [Example 36] | 4260 (≈ 2590 µM) | 1383.3 | 97.4 | 10.9 | 
COC(=O)N[C@H](C(=O)N[C@@H](Cc1ccc(C#Cc2cnc(N3CC4CCC(C3)N4C3COC3)nc2)cc1)[C@H](CN(Cc1c(F)cc(-c2ccn(C(F)F)n2)cc1F)NC(=O)[C@@H](NC(=O)OC)C(C)(C)C(F)(F)F)OC(=O)CC(C)(C)c1c(CC(=O)N[C@@H](C)C(=O)O)cc(C)cc1OP(=O)(O)O)C(C)(C)C(F)(F)F [Example 98] | 4280 (≈ 2750 µM) | 1320.1 | 64.6 | 6.47 | 
COC(=O)N[C@H](C(=O)N[C@@H](Cc1ccc(C#Cc2cnc(N3CC4CCC(C3)N4C3COC3)nc2)cc1)[C@H](CN(Cc1c(F)cc(-c2ccn(C(F)F)n2)cc1F)NC(=O)[C@@H](NC(=O)OC)C(C)(C)C(F)(F)F)OC(=O)CC(C)(C)c1c(CC(=O)NCc2ccc(S(N)(=O)=O)cc2)cc(C)cc1OP(=O)(O)O)C(C)(C)C(F)(F)F [Example 62] |  | 2213.4 | 280 |  | Human GI S9 [Intermediate A] ([1]; 2 μM, TRIS pH 7.4): 22.2 nM; Human GI S9 [Intermediate A] % ([1]; 2 μM, TRIS pH 7.4): 1.8%; biALP Intermediate A or [Amprenavir] (% of total) [2]: 0 % of total; [Intermediate A] or [Amprenavir] [2]: 0 nM; Dog GI S9 [Intermediate A] ([3]; 2 μM, TRIS pH 7.4): 38.3 nM; Dog GI S9 [Intermediate A] % ([3]; 2 μM, TRIS pH 7.4): 3.1%; half-life at 2 μM [3]: 13.2 h
COC(=O)N[C@H](C(=O)N[C@@H](Cc1ccc(C#Cc2cnc(N3CC4CCC(C3)N4C3COC3)nc2)cc1)[C@H](CN(Cc1c(F)cc(-c2ccn(C(F)F)n2)cc1F)NC(=O)[C@@H](NC(=O)OC)C(C)(C)C(F)(F)F)OC(=O)CC(C)(C)c1c(CC(=O)N[C@@H](CC(C)C)C(=O)O)cc(C)cc1OP(=O)(O)O)C(C)(C)C(F)(F)F [Example 99] | 1880 (≈ 1180 µM) | 1928.8 | 373 | 7.45 | 
CC[C@H](C)[C@H](NC(=O)Cc1cc(C)cc(OP(=O)(O)O)c1C(C)(C)CC(=O)O[C@@H](CN(Cc1c(F)cc(-c2ccn(C(F)F)n2)cc1F)NC(=O)[C@@H](NC(=O)OC)C(C)(C)C(F)(F)F)[C@H](Cc1ccc(C#Cc2cnc(N3CC4CCC(C3)N4C3COC3)nc2)cc1)NC(=O)[C@@H](NC(=O)OC)C(C)(C)C(F)(F)F)C(=O)O [Example 96] | 1840 (≈ 1150 µM) | 2114.6 | 559 | 4.33 | 
COC(=O)N[C@H](C(=O)N[C@@H](Cc1ccc(C#Cc2cnc(N3CC4CCC(C3)N4C3COC3)nc2)cc1)[C@H](CN(Cc1c(F)cc(-c2ccn(C(F)F)n2)cc1F)NC(=O)[C@@H](NC(=O)OC)C(C)(C)C(F)(F)F)OC(=O)CC(C)(C)c1c(CC(=O)N[C@@H](Cc2c[nH]c3ccccc23)C(=O)O)cc(C)cc1OP(=O)(O)O)C(C)(C)C(F)(F)F [Example 48] | 910 (≈ 545 µM) | 2071.6 | 201 | 4.76 | 
COC(=O)N[C@H](C(=O)N[C@@H](Cc1ccc(C#Cc2cnc(N3CC4CCC(C3)N4C3COC3)nc2)cc1)[C@H](CN(Cc1c(F)cc(-c2ccn(C(F)F)n2)cc1F)NC(=O)[C@@H](NC(=O)OC)C(C)(C)C(F)(F)F)OC(=O)OCOC(=O)CC(C)(C)c1c(CC(=O)NCC(=O)NS(C)(=O)=O)cc(C)cc1OP(=O)(O)O)C(C)(C)C(F)(F)F [Example 22] | 4720 (≈ 2790 µM) | 1221.6 | 9.9 | 6.22 | biALP Intermediate A or [Amprenavir] (% of total) [2]: 54.6 % of total; [Intermediate A] or [Amprenavir] [2]: 1468.7 nM
COC(=O)N[C@H](C(=O)N[C@@H](Cc1ccc(C#Cc2cnc(N3CC4CCC(C3)N4C3COC3)nc2)cc1)[C@H](CN(Cc1c(F)cc(-c2ccn(C(F)F)n2)cc1F)NC(=O)[C@@H](NC(=O)OC)C(C)(C)C(F)(F)F)OC(=O)CC(C)(C)c1c(CC(=O)NCCC(=O)O)cc(C)cc1OP(=O)(O)O)C(C)(C)C(F)(F)F [Example 26] | 1440 (≈ 923 µM) | 1764 | 96.9 | 2.44 | 
COC(=O)N[C@H](C(=O)N[C@@H](Cc1ccc(C#Cc2cnc(N3CC4CCC(C3)N4C3COC3)nc2)cc1)[C@H](CN(Cc1c(F)cc(-c2ccn(C(F)F)n2)cc1F)NC(=O)[C@@H](NC(=O)OC)C(C)(C)C(F)(F)F)OC(=O)CC(C)(C)c1c(CC(=O)NC(CCCC(=O)O)CC(=O)O)cc(C)cc1OP(=O)(O)O)C(C)(C)C(F)(F)F (stereo partly drawn) [Example 37] | 4460 (≈ 2720 µM) | 1518.9 | 41.8 | 7.32 | 
